Data taken from patent US20040110124A1, “Method of enhancing radiation resistance of normal cells” (priority 2002, published 2004).

Experiments:
Type in all cases: cell-based
Rat-1 fibroblast cells = assay: Cell survival after irradiation, MTT assay, normal fibroblast cells; details: light or radiation study, Rat-1, irradiated at 20 Gy, 1.0 μM valinomycin for 2 hours, 25% without valinomycin, read-out: relative survival (% of control)
Protocol: (§1) FIG. 2. Effect of valinomycin on radiation response of normal fibroblast cells. Rat-1 fibroblast cells were irradiated with 0-20 Gy in presence or absence of valinomycin. Valinomycin (0.01-1.0 μM) was added in the growth media immediately prior to irradiation, and removed at 2 hours or 3 days post irradiation. Three days after irradiation, cell survival was assessed by using the MTT assay.
(§2) Three normal cell lines (Rat-1, a fibroblast cell line; MS-1, an endothelial cell line and MDCK, a epithelial cell line) were studied. All three cell lines were cultured in Dulbecco's modified Eagle medium supplemented with 10% fetal calf serum, 100 U/ml penicillin and 100 ug/ml streptomycin (Gibco BRL, Gaithersburg, Md.) at 37° C. with 5% CO2. Cells were irradiated with a ^137Cs source at a dose rate of 300 cGy/min, and the viability of cells was measured by the MTT assay. Valinomycin was used as an agent to hyperpolarize the plasma membrane. The membrane potential was recorded with a fluorescent probe bis-oxonol, a negatively charged potential-sensitive fluorescent dye, which is distributed across the plasma membrane. Binding of this probe to intracellular components is dependent upon the membrane potential.

Rat-1 cells = assay: Membrane potential recorded with fluorescent probe bis-oxonol
Protocol: FIG. 1. Fluorescence measurement of Rat-1 cells before (Line A) and after (Line B) valinomycin (1.0 μM) treatment.
as §2

MS1 endothelial cells = assay: Cell survival after irradiation, MTT assay, normal endothelial cells; details: light or radiation study, MS-1, irradiated at 20 Gy, 1.0 μM valinomycin for 2 hours, 45% without valinomycin, read-out: relative survival (% of control)
Protocol: (§3) FIG. 3. Effect of valinomycin on radiation response of normal endothelial cells. MS1 endothelial cells were irradiated with 0-20 Gy in the presence or absence of valinomycin. Valinomycin (0.01-1.0 μM) was added in the growth media immediately prior to irradiation, and removed at 2 hours or 3 days post irradiation. Three days after irradiation, cell survival was assessed by using the MTT assay.
as §2

[1] = tested on: Rat-1, MS-1 and MDCK cells; assay: Cell survival after irradiation, MTT assay, all three normal cell lines together; details: valinomycin 0.01 μM to 1.0 μM
Protocol: as §1, §3
FIG. 4. Effect of valinomycin on radiation response of normal epithelial cells. […] Three days after irradiation, cell survival was assessed by using the MTT assay.
Three normal cell lines (Rat-1, a fibroblast cell line; MS-1, an endothelial cell line and MDCK, a epithelial cell line) were studied. […] Cells were irradiated with a ^137Cs source at a dose rate of 300 cGy/min, and the viability of cells was measured by the MTT assay. […] The membrane potential was recorded with a fluorescent probe bis-oxonol, a negatively charged potential-sensitive fluorescent dye, which is distributed across the plasma membrane. […]

MDCK epithelial cells = assay: Cell survival after irradiation, MTT assay, normal epithelial cells; details: Canis lupus familiaris, light or radiation study, irradiated at 20 Gy, 1.0 μM valinomycin for 2 hours, 58% without valinomycin, read-out: relative survival (% of control)
Protocol: FIG. 4. Effect of valinomycin on radiation response of normal epithelial cells. MDCK epithelial cells were irradiated with 0-20 Gy in the presence or absence of valinomycin. Valinomycin (0.01-1.0 μM) was added in the growth media immediately prior to irradiation, and removed at 2 hours or 3 days post irradiation. Three days after irradiation, cell survival was assessed by using the MTT assay.
as §2

## CC(C)[C@@H]1NC(=O)[C@H](C)OC(=O)[C@@H](C(C)C)NC(=O)[C@@H](C(C)C)OC(=O)[C@H](C(C)C)NC(=O)[C@H](C)OC(=O)[C@@H](C(C)C)NC(=O)[C@@H](C(C)C)OC(=O)[C@H](C(C)C)NC(=O)[C@H](C)OC(=O)[C@@H](C(C)C)NC(=O)[C@@H](C(C)C)OC1=O [valinomycin]
Rat-1 fibroblast cells
  activity at 1 µM: 67%
Rat-1 cells; valinomycin 1.0 μM, incubation 2 hours, Rat-1 cells (FIG. 1)
  fluorescent reading, plasma membrane polarization: decrease in fluorescent reading
Rat-1 cells; valinomycin 0.01-1 nM for 2 hours or 3 days
  decrease of intracellular fluorescence (bis-oxonol): 55-60%
Rat-1 cells; valinomycin 0.01-1 nM for 2 hours or 3 days, 0.44-0.5 prior to treatment
  intracellular fluorescence after valinomycin treatment: 0.18-0.20
MS1 endothelial cells
  activity at 1 µM: 92%
[1]
  radiation protective effect across concentrations: very similar radiation protective effects
MDCK epithelial cells
  activity at 1 µM: 82%
